Source: patent US9174992B2, “Heterobicyclic compounds” (Amgen Inc., priority 2012, dated 2015)
Structures can show the parent of a compound that is named as a salt.

Molecular target: PDE10A (UniProt Q9Y233)
Assay: PDE10 enzyme inhibition, IMAP TR-FRET assay (Example A, MPDE10A7 Enzyme Activity and Inhibition)
Type: biochemical
Conditions: approximate IC50 value, Table 10
Procedure, shortened: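 Compounds were preincubated 60 min at room temperature with PDE10A enzyme or tissue homogenate, then fluorescein-labeled cAMP or cGMP was added for 90 min. After stopping with IMAP binding reagents, TR-FRET was read and IC50s were fitted with a four-parameter logistic equation.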

Structure (SMILES) | IC50 [nM]
FC(F)(F)c1nc2cccnc2n1[C@H]1C[C@H](Nc2ncc3ccccc3n2)C1 [Example 12, N-(Trans-3-(2-(trifluoromethyl)-3H-imidazo[4,5-b]pyridin-3-yl)cyclobutyl)quinazolin-2-amine] | 6.9
COc1ccc2nc(N[C@H]3C[C@H](n4c(=O)n(C5CC5)c5nccnc54)C3)sc2c1 [Example 224, 1-cyclopropyl-3-(trans-3-((6-methoxybenzo[d]thiazol-2-yl)amino)cyclobutyl)-1H-imidazo[4,5-b]pyrazin-2(3 H)-one] | 57.7
CC1(C)C(=O)N([C@H]2C[C@H](Nc3nc(-c4ccccc4)cs3)C2)c2ncccc21 [Example 69, 3,3-Dimethyl-1-(trans-3-((4-phenylthiazol-2-yl)amino)cyclobutyl)-1H-pyrrolo[2,3-b]pyridine-2(3H)-one] | 167
O=C1N([C@H]2C[C@H](Nc3nc4ccccc4s3)C2)c2ncccc2C12CCCC2 [Example 36, 1′-(Trans-3-(benzo[d]thiazol-2-ylamino)cyclobutyl)spiro[cyclopentane-1,3′-pyrrolo[2,3-b]pyridin]-2′(1′H)-one] | 0.134
Cc1ccc(N[C@H]2CC[C@@H](N3C(=O)C(C)(C)c4nccnc43)CC2)nc1 [Example 218, 7,7-dimethyl-5-(cis-4-((5-methylpyridin-2-yl)amino)cyclohexyl)-5H-pyrrolo[2,3-b]pyrazin-6(7H)-one] | 1410
O=c1n(C2CC2)c2nccnc2n1[C@H]1C[C@H](Nc2nc3ccc(Cl)cc3o2)C1 [Example 229, 1-(trans-3-((6-chlorobenzo[d]oxazol-2-yl)amino)cyclobutyl)-3-cyclopropyl-1H-imidazo[4,5-b]pyrazin-2(3H)-one] | 10.1
Cn1c(=O)n([C@H]2C[C@H](Nc3nc4ccc(F)cc4s3)C2)c2ncccc21 [Example 153, 3-(trans-3-((6-fluorobenzo[d]thiazol-2-yl)amino)cyclobutyl)-1-methyl-1H-imidazo[4,5-b]pyridin-2(3H)-one] | 0.255
CC1(C)C(=O)N([C@@H]2CCN(c3nc4ccccc4s3)C2)c2nccnc21 [Example 140, (R)-5-(1-(benzo[d]thiazol-2-yl)pyrrolidin-3-yl)-7,7-dimethyl-5H-pyrrolo[2,3-b]pyrazin-6(7H)-one] | 656
O=C1N([C@H]2C[C@H](Nc3nc4ccccc4s3)C2)c2ncccc2C12CCC2 [Example 35, 1′-(trans-3-(benzo[d]thiazol-2-ylamino)cyclobutyl)spiro[cyclobutane-1,3′-pyrrolo[2,3-b]pyridin]-2′(1′H)-one] | 0.115
CC1(C)C(=O)N([C@H]2C[C@H](Nc3ccc(OC(F)F)cn3)C2)c2nccnc21 [Example 167, 5-(trans-3-((5-(difluoromethoxy)pyridin-2-yl)amino)cyclobutyl)-7,7-dimethyl-5H-pyrrolo[2,3-b]pyrazin-6(7H)-one(trifluoroacetic acid salt)] | 98.4
c1ccc2sc(N[C@H]3C[C@H](n4cnc5cccnc54)C3)nc2c1 [Example 14, N-(trans-3-(3H-imidazo[4,5-b]pyridin-3-yl)cyclobutyl)benzo[d]thiazol-2-amine] | 14.2
O=c1[nH]c2cccnc2n1[C@H]1CC[C@H](Nc2nc3cc(F)ccc3s2)CC1 [Example 107, 3-(trans-4-((5-fluorobenzo[d]thiazol-2-yl)amino)cyclohexyl)-1H-imidazo[4,5-b]pyridin-2(3H)-one] | 152
COc1nc2cccnc2n1C1CCN(c2nc3ccccc3[nH]2)CC1 [Example 125, 3-(1-(1-H-Benzo[d]imidazol-2-yl)piperidin-4-yl)-2-methoxy-3H-imidazo[4,5-b]pyridine] | 3.79
O=c1n(C2CC2)c2cccnc2n1[C@H]1C[C@H](Nc2nc3cc(F)ccc3s2)C1 [Example 185, 1-cyclopropyl-3-(trans-3-((5-fluorobenzo[d]thiazol-2-yl)amino)cyclobutyl)-1H-imidazo[4,5-b]pyridin-2(3H)-one] | 0.839
O=c1[nH]c2cccnc2n1[C@H]1C[C@H](Nc2nc3ccccc3s2)C1 [Example 94, 3-(trans-3-(benzo[d]thiazol-2-ylamino)cyclobutyl)-1H-imidazo[4,5-b]pyridin-2(3H)-one] | 0.91
Cn1c(=O)n([C@H]2C[C@H](Nc3nc4cccnc4s3)C2)c2ncccc21 [Example 172, 1-methyl-3-(trans-3-(thiazolo[-5,4-b]pyridin-2-ylamino)cyclobutyl)-1H-imidazo[4,5-b]pyridin-2(3 H)-one] | 2.15
O=c1[nH]c2cccnc2n1[C@H]1C[C@@H](Nc2nc3ccccc3s2)C1 [Example 103, 3-(cis-3-(benzo[d]thiazol-2-ylamino)cyclobutyl)-1H-imidazo[4,5-b]pyridin-2(3H)-one] | 26.6
CC1(C)C(=O)N([C@H]2CCN(c3nc4ccccc4s3)C2)c2nccnc21 [Example 141, (S)-5-(1-(benzo[d]thiazol-2-yl)pyrrolidin-3-yl)-7,7-dimethyl-5H-pyrrolo[2,3-b]pyrazin-6(7H)-one] | 295
Cn1c(=O)n([C@H]2C[C@H](Nc3nc4ccccc4s3)C2)c2ncncc21 [Example 93, 9-(trans-3-(benzo[d]thiazol-2-ylamino)cyclobutyl)-7-methyl-7H-purin-8(9H)-one] | 0.878

Structure (SMILES) | IC50 [nM]
O=c1n(C2CC2)c2nccnc2n1[C@H]1C[C@H](Nc2ccc(Cl)cn2)C1 [Example 221, 1-(trans-3-((5-chloropyridin-2-yl)amino)cyclobutyl)-3-cyclopropyl-1H-imidazo[4,5-b]pyrazin-2(3H)-one] | 2.77
O=c1n(C2CC2)c2nccnc2n1[C@H]1C[C@H](Nc2ncc3ccc(F)cc3n2)C1 [Example 174] | 0.896
CC1(C)C(=O)N([C@H]2C[C@H](Nc3ccc(C(F)(F)F)cn3)C2)c2ncccc21 [Example 46, 1-(Trans-3-((5-trifuoromethylpyridin-2-yl)amino)cyclobutyl)-3,3-dimethyl-1H-pyrrolo[2,3-b]pyridin-2(3H)-one] | 2.53
O=C(c1cnc(N[C@H]2C[C@H](n3c(=O)n(C4CC4)c4nccnc43)C2)s1)N1CCOCC1 [Example 152, 1-cyclopropyl-3-(trans-3-((5-(morpholine-4-carbonyl)thiazol-2-yl)amino)cyclobutyl)-1H-imidazo[4,5-b]pyrazin-2(3H)-one] | 9040
O=C(c1nc2ccccc2[nH]1)N1CC(n2c(=O)[nH]c3cccnc32)C1 [Example 117, 3-(1-(1H-benzo[d]imidazole-2-carbonyl)azetidin-3-yl)-1H-imidazo[4,5-b]pyridin-2(3H)-one] | 3.26
c1ccc2nc(N[C@H]3C[C@H](n4cnc5cccnc54)C3)ncc2c1 [Example 22, N-(Trans-3-(3H-imidazo[4,5-b]pyridin-3-yl)cyclobutyl)quinazolin-2-amine] | 178
CC1(C)C(=O)N([C@H]2C[C@H](Nc3ccc(C4CC4)cn3)C2)c2nccnc21 [Example 78, 5-(trans-3-((5-cyclopropylpyridin-2-yl)amino)cyclobutyl)-7,7-dimethyl-5H-pyrrolo[2,3-b]pyrazin-6(7H)-one] | 4.2
CC1(C)C(=O)N([C@H]2C[C@H](Nc3ccc(Br)cn3)C2)c2nccnc21 [Example 160, 5-(trans-3-((5-bromopyridin-2-yl)amino)cyclobutyl)-7,7-dimethyl-5H-pyrrolo[2,3-b]pyrazin-6(7H)-one] | 90.5
O=c1n(C2CC2)c2nccnc2n1[C@H]1C[C@H](Nc2nc3cccnc3s2)C1 [Example 178, 1-cyclopropyl-3-(trans-3-(thiazolo[5,4-b]pyridin-2-ylamino)cyclobutyl)-1H-imidazo[4,5-b]pyrazin-2(3 H)-one] | 2.22
CC1(C)C(=O)N([C@H]2C[C@H](Nc3cccnn3)C2)c2ncccc21 [Example 68, 3,3-Dimethyl-1-(trans-3-(pyridazin-3-ylamino)cyclobutyl)-1H-pyrrolo[2,3-b]pyridine-2(3H)-one] | 158
CC1(C)C(=O)N([C@H]2C[C@H](Nc3ncc(Cl)cn3)C2)c2ncccc21 [Example 61, 1-(trans-3-((5-chloropyrimidin-2-yl)amino)cyclobutyl)-3,3-dimethyl-1H-pyrrolo[2,3-b]pyridin-2(3H)-one] | 30.4
O=c1n(C2CC2)c2nc(Br)cnc2n1[C@H]1C[C@H](Nc2nc3ccccc3s2)C1 [Example 230, 1-(trans-3-(benzo[d]thiazol-2-ylamino)cyclobutyl)-5-bromo-3-cyclopropyl-1H-imidazo[4,5-b]pyrazin-2(3H)-one] | 0.393
O=c1n(C2CC2)c2nc(Br)cnc2n1[C@H]1C[C@H](Nc2ncc3ccc(F)cc3n2)C1 [Example 231, 5-bromo-3-cyclopropyl-1-(trans-3-((7-fluoroquinazolin-2-yl)amino)cyclobutyl)-1H-imidazo[4,5-b]pyrazin-2(3H)-one] | 31.5
O=c1[nH]c2cccnc2n1[C@H]1CC[C@H](Nc2ccc3ccccc3n2)CC1 [Example 108, 3-(trans-4-(quinolin-2-ylamino)cyclohexyl)-1H-imidazo[4,5-b]pyridin-2(3H)-one] | 266
Cc1ccnc(N[C@H]2C[C@H](N3C(=O)C(C)(C)c4cccnc43)C2)c1 [Example 51, 1-(Trans-3-((4-methylpyridin-2-yl)amino)cyclobutyl)-3,3-dimethyl-1H-pyrrolo[2,3-b]pyridin-2(3H)-one] | 4.85
Cc1ccc(N[C@H]2CC[C@H](N3C(=O)C(C)(C)c4cccnc43)CC2)nc1 [Example 77, 3,3-Dimethyl-1-(trans-4-((5-methylpyridin-2-yl)amino)cyclohexyl)-1H-pyrrolo[2,3-b]pyridin-2(3H)-one] | 1.29
O=c1n(C2CC2)c2nccnc2n1[C@H]1C[C@H](Nc2ncc3ccccc3n2)C1 [Example 219, 1-cyclopropyl-3-(trans-3-(quinazolin-2-ylamino)cyclobutyl)-1H-imidazo[4,5-b]pyrazin-2(3H)-one] | 554
Cn1c(=O)n([C@H]2C[C@H](Nc3ncc4ccccc4n3)C2)c2ncc(F)cc21 [Example 206, 6-fluoro-1-methyl-3-(trans-3-(quinazolin-2-ylamino)cyclobutyl)-1H-imidazo[4,5-b]pyridin-2(3H)-one] | 7.65
